Here are results for 18 compounds from US20150141411A1, “SUBSTITUTED 3,4-DIHYDRO-2H-PYRIDO[1,2-A]PYRAZINE-1,6-DIONE DERIVATIVES USEFUL FOR THE TREATMENT OF (INTER ALIA) ALZHEIMER'S DISEASE” (Janssen Pharmaceuticals, Inc., priority 2012, published 2015).

Test [1] relates to Aβ38. Kind of test: In vivo efficacy: brain soluble Aβ38 in non-transgenic rodents (ELISA). The note with it: Mus musculus, dose 30 mg/kg oral dosing, brain soluble fraction, animals sacrificed after 4 h, untreated animals (Ctrl) set at 100, read-out: Aβ38 (% vs Ctrl)_Mean. An excerpt: To determine whether acute administration of an Aβ38 increasing agents would increase Aβ38 levels in vivo, non-transgenic rodents, e.g. mice or rats were used. Animals treated with the Aβ38 increasing agents were examined and compared to those untreated or treated with vehicle and brain levels of soluble Aβ38 and total Aβ were quantitated by standard techniques, for example, using ELISA. Treatment periods varied from hours (h) to days and were adjusted based on the results of the Aβ38 increase once a time course of onset of effect could be established.
A typical protocol for measuring Aβ38 increase in vivo is shown but it is only one of many variations that could be used to optimize the levels of detectable Aβ. For example, Aβ38 increasing agents were formulated in 20% of Captisol® (a sulfobutyl ether of β-cyclodextrin) in water or 20% hydroxypropyl βcyclodextrin. The Aβ38 increasing agents were administered as a single oral dose or by any acceptable route of administration to overnight fasted animals. After 4 h, the animals were sacrificed and Aβ38 levels were analysed.
(§1) Blood was collected by decapitation and exsanguinations in EDTA-treated collection tubes. Blood was centrifuged at 1900 g for 10 minutes (min) at 4° C. and the plasma recovered and flash frozen for later analysis. The brain was removed from the cranium and hindbrain. The cerebellum was removed and the left and right hemisphere were separated. The left hemisphere was stored at −18° C. for quantitative analysis of test compound levels. The right hemisphere was rinsed with phosphate-buffered saline (PBS) buffer and immediately frozen on dry ice and stored at −80° C. until homogenization for biochemical assays.
(§2) Mouse brains from non-transgenic animals were resuspended in 8 volumes of 0.4% DEA (diethylamine)/50 mM NaCl containing protease inhibitors (Roche-11873580001 or 04693159001) per gram of tissue, e.g. for 0.158 g brain, add 1.264 ml of 0.4% DEA. All samples were homogenized in the FastPrep-24 system (MP Biomedicals) using lysing matrix D (MPBio #6913-100) at 6 m/s for 20 seconds. Homogenates were centrifuged at 221.300×g for 50 min. The resulting high speed supernatants were then transferred to fresh eppendorf tubes. Nine parts of supernatant were neutralized with 1 part 0.5 M Tris-HCl pH 6.8 and used to quantify Aβ total and Aβ38.
(§3) To quantify the amount of Aβtotal and Aβ38 in the soluble fraction of the brain homogenates, Enzyme-Linked-Immunosorbent-Assays were used. Briefly, the standards (a dilution of synthetic Aβ1-40 and Aβ1-38, ANASPEC) were prepared in 1.5 ml Eppendorf tube in Ultraculture, with final concentrations ranging from 10000 to 0.3 pg/ml. The samples and standards were co-incubated with HRPO-labelled N-terminal antibody for Aβ38 detection and with the biotinylated mid-domain antibody 4G8 for Aβtotal detection. 50 μl of conjugate/sample or conjugate/standards mixtures were then added to the antibody-coated plate (the capture antibodies selectively recognize the C-terminal end of Aβ38, antibody J&JPRD/Aβ38/5, for Aβ38 detection and the N-terminus of Aβ, antibody JRF/rAβ/2, for Aβtotal detection). The plate was allowed to incubate overnight at 4° C. in order to allow formation of the antibody-amyloid complex. Following this incubation and subsequent wash steps the ELISA for Aβ38 quantification was finished by addition of Quanta Blu fluorogenic peroxidase substrate according to the manufacturer's instructions (Pierce Corp., Rockford, Ill.). A reading was performed after 10 to 15 min (excitation 320 nm/emission 420 nm).
In this model a Aβ38 increase compared to untreated animals would be advantageous, in particular a Aβ38 increase with at least 10%, more in particular a Aβ38 increase with at least 20%.
(§4) The results are shown in Table 4 (dose 30 mg/kg oral dosing) (value for untreated animals as control (Ctrl) was set at 100): […]
(An ELISA detects its analyte on a solid surface through an enzyme-linked reagent.)

For test [2], the system named is Aβ42. The test can be described thus: In vivo efficacy: brain soluble Aβ42 in non-transgenic rodents (ELISA). The note with it: Mus musculus, dose 30 mg/kg oral dosing, brain soluble fraction, animals sacrificed after 4 h, untreated animals (Ctrl) set at 100, read-out: Aβ42 (% vs Ctrl)_Mean.
From the text: To determine whether acute administration of an Aβ42 lowering agent would reduce Aβ42 levels in vivo, non-transgenic rodents, e.g. mice or rats were used. Animals treated with the Aβ42 lowering agent were examined and compared to those untreated or treated with vehicle and brain levels of soluble Aβ42 and total Aβ were quantitated by standard techniques, for example, using ELISA. Treatment periods varied from hours (h) to days and were adjusted based on the results of the Aβ42 lowering once a time course of onset of effect could be established.
A typical protocol for measuring Aβ42 lowering in vivo is shown but it is only one of many variations that could be used to optimize the levels of detectable Aβ. For example, Aβ42 lowering compounds were formulated in 20% of Captisol® (a sulfobutyl ether of β-cyclodextrin) in water or 20% hydroxypropyl β cyclodextrin. The Aβ42 lowering agents were administered as a single oral dose or by any acceptable route of administration to overnight fasted animals. After 4 h, the animals were sacrificed and Aβ42 levels were analysed.
as §1
as §2, with “Aβtotal” for “Aβ total”, “Aβ42.” for “Aβ38.”
as §3, with “Aβ42” for “Aβ38”, “Aβ1-42, Bachem)” for “Aβ1-38, ANASPEC)”, “Aβ42,” for “Aβ38,”, “JRF/cAβ42/26,” for “J&JPRD/Aβ38/5,”
In this model a Aβ42 lowering compared to untreated animals would be advantageous, in particular a Aβ42 lowering with at least 10%, more in particular a Aβ42 lowering with at least 20%.
as §4

In the case of `Cc1cn(-c2ccc3n(c2=O)C[C@@H](C)N(Cc2cc(N4CCC(C)CC4)ccc2Cl)C3=O)cn1` [compound 80], the response vs control in vivo at 30 mg/kg in test [1] stood at 118%; in test [2], 119%.

`Cc1cn(-c2ccc3n(c2=O)CCN(Cc2ccc(Cl)c(C(F)(F)F)c2)C3=O)cn1` [compound 65]: the response vs control in vivo at 30 mg/kg was found to be 132% in test [1] and 104% in test [2].

As to `Cc1cn(-c2ccc3n(c2=O)C[C@@H](C)N(Cc2cccc(C(C)(C)C)c2)C3=O)cn1` [compound 23], the response vs control in vivo at 30 mg/kg in test [1] turned out to be 132%; in test [2], 122%.

For `Cc1cn(-c2ccc3n(c2=O)CC(C)N(Cc2cc(OCC4CC4)cc(C(F)(F)F)c2)C3=O)cn1.Cl` (stereo not drawn) [compound 6], the response vs control in vivo at 30 mg/kg is 129% in test [1] and 85% in test [2].

For the compound `Cc1cn(-c2ccc3n(c2=O)CCN(C(C)c2cccc(Cl)c2Cl)C3=O)cn1` (single isomer, unassigned) [10a], the response vs control in vivo at 30 mg/kg worked out at 85% in test [1] and 87% in test [2].

Regarding `Cc1cc(CN2C(=O)c3ccc(-n4cnc(C)c4)c(=O)n3C[C@H]2C)cc(C(F)(F)F)c1` [compound 59], the response vs control in vivo at 30 mg/kg in test [1] turned out to be 126%; in test [2], 82%.

As to `Cc1cn(-c2ccc3n(c2=O)CCN(Cc2ccc(C)c(N4CCCCC4)c2)C3=O)cn1` [compound 99], the response vs control in vivo at 30 mg/kg in test [1] was 92%; in test [2] it was 111%.

Regarding `CCC1Cn2c(ccc(-n3cnc(C)c3)c2=O)C(=O)N1Cc1cc(C(F)(F)F)cc(C(F)(F)F)c1.Cl` (stereo not drawn) [compound 1], the values for the response vs control in vivo at 30 mg/kg in test [1] and in test [2] were 103% and 61%, respectively.

For the compound `Cc1cn(-c2ccc3n(c2=O)C[C@@H](C)N(Cc2ccc(C(F)(F)F)c(C(F)(F)F)c2)C3=O)cn1` [compound 46], the response vs control in vivo at 30 mg/kg in test [1] is 62%; in test [2] it was 60%.

In the case of `Cc1cn(-c2ccc3n(c2=O)CCN(Cc2ccccc2C)C3=O)cn1` [compound 22], the response vs control in vivo at 30 mg/kg in test [1] worked out at 105%; in test [2] it was 106%.

As to `Cc1cn(-c2ccc3n(c2=O)C[C@@H](C)N(Cc2cc(Cl)cc(C(F)(F)F)c2)C3=O)cn1` [compound 63], the response vs control in vivo at 30 mg/kg was found to be 133% in test [1] and 82% in test [2].

In the case of `Cc1cn(-c2ccc3n(c2=O)C[C@@H](C)N(Cc2cc(N4CCCC4)ccc2Cl)C3=O)cn1` [compound 82], the response vs control in vivo at 30 mg/kg in test [1] was 120%; in test [2], 78%.

Turning to `Cc1cn(-c2ccc3n(c2=O)C[C@@H](C)N(Cc2ccc(Cl)c(Cl)c2)C3=O)cn1` [compound 2], the response vs control in vivo at 30 mg/kg in test [1] was found to be 129%; in test [2], 82%.

Take `CCc1cn(-c2ccc3n(c2=O)CC(C)N(Cc2cc(C(F)(F)F)cc(C(F)(F)F)c2)C3=O)cn1.Cl` (stereo not drawn) [compound 7]: the response vs control in vivo at 30 mg/kg in test [1] was 80%; in test [2], 73%.

With `Cc1cn(-c2ccc3n(c2=O)CC(C)N(Cc2cc(C(F)(F)F)cc(C(F)(F)F)c2)C3=O)cn1` (stereo not drawn) [compound 3], the response vs control in vivo at 30 mg/kg came out at 137% in test [1] and 55% in test [2].

`Cc1cn(-c2ccc3n(c2=O)C[C@@H](C)N(Cc2ccc(Cl)c(C(F)(F)F)c2)C3=O)cn1` [compound 62]: the response vs control in vivo at 30 mg/kg in test [1] came to 160%; in test [2], 68%.

For the compound `Cc1cn(-c2ccc3n(c2=O)C[C@@H](C)N(CCc2cc(C(F)(F)F)cc(C(F)(F)F)c2)C3=O)cn1` [compound 50], the values for the response vs control in vivo at 30 mg/kg in test [1] and in test [2] were 110% and 88%, respectively.

In the case of `Cc1cn(-c2ccc3n(c2=O)CCN(Cc2cccc(-c4ccccc4)c2)C3=O)cn1` [compound 5], the response vs control in vivo at 30 mg/kg came out at 110% in test [1] and 78% in test [2].
